Results on two compounds are retold here after patent US11013687B1, “Preventive and therapeutic treatment for COVID 19 and any other disease caused by SARS CoV 2” (priority 2020, dated 2021).

For data set [1] the following is noted: used in much larger amounts as food additive and sweetener than for nasal delivery; cited from earlier work.
Data set [2] deals with SARS-CoV-2. The format is cell-based.
For data set [3] the following is noted: cited from earlier work.

`OC[C@@H](O)[C@H](O)[C@@H](O)CO` [xylitol, Xylitol]: the safety for humans result in data set [1] was “safe for humans”. Also, the “capable of inhibiting SARS CoV 2 in vitro (in words)” value in data set [2] (xylitol alone) is reported as “capable of inhibiting SARS CoV 2 in vitro”.

For iota Carrageenan, the safety for humans entry in data set [1] is listed as “safe for humans”. For the same compound, in data set [3] (clinical trials with a formulation containing xylometazoline and iota Carrageenan), the “time iota Carrageenan stays in the nasal mucosa” value is listed as “about 4 hrs”. Moreover, the residence time entry in data set [3] (nasal, estimation basis for dosing each 4 hours) was “approximately 4 hour”. Moreover, the “Log reduction of TCID50/mL after 48 hs. (mean of three replicates)” value in data set [2] (6 μg/mL iota carrageenan, Vero E6, treated pre- and post-infection, 48 h, vs virus only, LOD in next column = titre at limit of detection) was “significantly reducing viral titers”. Also, the “concentration capable of inhibiting SARS CoV 2 in vitro” value in data set [2] (concentration of iota Carrageenan, alone or in combination with xylitol) is listed as “not less than 6 μg/mL”.
